Counter-ions that a name gives are not always drawn. Like-named read-outs stand apart in the source and are kept apart here.
Key:
NaV1.7 = NaV1.7 (Homo sapiens (Human), UniProt Q15858); test: Patch voltage clamp electrophysiological assay (EP), NaV1.7; type: cell-based; conditions: HEK-293 cells stably expressing human NaV1.7 with β1 subunit, whole-cell patch clamp, holding −60 mV
Experimental: Electrophysiological Assay (EP) (In vitro Assay)
Control sodium currents were measured in 0.5% DMSO.
Series resistance compensation was applied (60-80%).

NaV1.5 = NaV1.5 (Homo sapiens (Human), UniProt Q14524); test: Patch voltage clamp electrophysiological assay (EP), NaV1.5
NaV1.5, sequence (Q14524 whole entry): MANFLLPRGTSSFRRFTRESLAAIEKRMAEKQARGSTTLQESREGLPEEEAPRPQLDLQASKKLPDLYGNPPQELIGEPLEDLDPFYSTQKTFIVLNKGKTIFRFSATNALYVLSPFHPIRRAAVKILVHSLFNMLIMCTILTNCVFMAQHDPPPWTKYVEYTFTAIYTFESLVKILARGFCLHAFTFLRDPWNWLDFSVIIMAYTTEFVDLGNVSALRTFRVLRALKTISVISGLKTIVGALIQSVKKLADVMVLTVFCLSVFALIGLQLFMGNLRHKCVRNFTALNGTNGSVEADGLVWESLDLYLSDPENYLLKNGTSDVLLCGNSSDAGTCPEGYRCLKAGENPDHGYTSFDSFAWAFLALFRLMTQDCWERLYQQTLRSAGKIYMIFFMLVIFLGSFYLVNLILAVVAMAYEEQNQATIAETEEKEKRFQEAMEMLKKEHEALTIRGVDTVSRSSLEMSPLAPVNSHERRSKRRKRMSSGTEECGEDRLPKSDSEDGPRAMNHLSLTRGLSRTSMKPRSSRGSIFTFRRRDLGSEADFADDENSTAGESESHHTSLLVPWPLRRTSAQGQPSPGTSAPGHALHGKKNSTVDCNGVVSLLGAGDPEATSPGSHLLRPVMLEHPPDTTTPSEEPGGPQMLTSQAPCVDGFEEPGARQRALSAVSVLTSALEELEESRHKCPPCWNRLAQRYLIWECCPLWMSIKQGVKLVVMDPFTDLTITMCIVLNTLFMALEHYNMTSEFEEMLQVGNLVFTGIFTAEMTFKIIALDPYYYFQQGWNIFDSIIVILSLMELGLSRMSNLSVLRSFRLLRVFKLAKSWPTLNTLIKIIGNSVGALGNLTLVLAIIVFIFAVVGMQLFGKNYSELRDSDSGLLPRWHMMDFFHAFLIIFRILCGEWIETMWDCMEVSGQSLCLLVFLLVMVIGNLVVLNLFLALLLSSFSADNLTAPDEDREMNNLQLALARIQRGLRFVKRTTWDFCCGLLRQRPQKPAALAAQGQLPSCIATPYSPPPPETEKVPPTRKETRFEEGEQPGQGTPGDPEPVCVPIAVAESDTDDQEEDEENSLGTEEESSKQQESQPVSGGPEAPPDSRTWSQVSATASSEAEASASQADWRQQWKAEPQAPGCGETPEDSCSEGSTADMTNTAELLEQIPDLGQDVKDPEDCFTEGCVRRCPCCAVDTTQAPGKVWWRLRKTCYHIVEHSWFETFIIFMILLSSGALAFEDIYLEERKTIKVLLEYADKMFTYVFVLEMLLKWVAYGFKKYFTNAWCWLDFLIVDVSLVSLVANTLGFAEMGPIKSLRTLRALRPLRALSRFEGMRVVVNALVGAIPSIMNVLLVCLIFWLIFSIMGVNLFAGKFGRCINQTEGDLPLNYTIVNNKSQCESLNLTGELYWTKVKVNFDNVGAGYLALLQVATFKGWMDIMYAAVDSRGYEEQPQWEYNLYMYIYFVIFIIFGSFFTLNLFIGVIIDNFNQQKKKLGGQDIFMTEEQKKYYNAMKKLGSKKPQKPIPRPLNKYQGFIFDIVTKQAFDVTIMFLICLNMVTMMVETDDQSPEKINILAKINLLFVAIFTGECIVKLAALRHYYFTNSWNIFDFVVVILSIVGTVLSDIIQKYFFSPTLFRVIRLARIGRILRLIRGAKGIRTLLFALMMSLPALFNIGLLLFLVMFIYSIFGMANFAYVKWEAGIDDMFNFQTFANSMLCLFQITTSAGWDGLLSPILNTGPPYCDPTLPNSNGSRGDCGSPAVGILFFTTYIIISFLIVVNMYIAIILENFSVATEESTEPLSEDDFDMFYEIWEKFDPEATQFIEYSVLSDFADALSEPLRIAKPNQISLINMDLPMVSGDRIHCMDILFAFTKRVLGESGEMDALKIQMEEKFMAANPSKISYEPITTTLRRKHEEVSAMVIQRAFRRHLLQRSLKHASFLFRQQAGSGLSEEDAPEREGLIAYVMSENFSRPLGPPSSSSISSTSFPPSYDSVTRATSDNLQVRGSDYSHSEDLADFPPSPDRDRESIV
Experimental: The following patch voltage clamp electrophysiology studies were performed on representative compounds of the invention using human embryonic kidney cells (HEK), permanently transfected with an expression vector containing the full-length cDNA coding for the desired human sodium channel α-subunit, grown in culture media containing 10% FBS, 1% PSG, and 0.5 mg/mL G418 at 37° C. with 5% CO2. […] The β1 subunit was coexpressed in both the NaV1.7 and NaV1.5 cell lines.
Sodium currents were measured rising the patch clamp technique in the whole-cell configuration using either a PatchXpress automated voltage clamp or manually using an Axopatch 200B (Axon Instruments) or Model 2400 (A-M systems) amplifier. […] The pipette was filled with a solution comprised of: 5 mM NaCl, 10 mM CsCl, 120 mM CsF, 0.1 mM CaCl2, 2 mM MgCl2, 10 mM HEPES, 10 mM EGTA; and adjusted to pH 7.2 with CsOH. The external solution had the following composition: 140 mM NaCl, 5 mM KCl, 2 mM CaCl2, 1 mM MgCl2, 10 mM HEPES; and adjusted to pH 7.4 with NaOH. In some studies, the external sodium was reduced by equimolar replacement with choline. Osmolality in the CsF internal and NaCl external solutions was adjusted to 300 mOsm/kg and 310 mOsm/kg with glucose, respectively. All recordings were performed at ambient temperature in a bath chamber with a volume of 150 μL. Control sodium currents were measured in 0.5% DMSO. Controls and representative compounds of the invention were applied to the recording chamber through a 4-pinch or 8-pinch valve bath perfusion system manufactured by ALA Scientific Instruments.
Currents were recorded at 40 kHz sampling frequency, filtered at 5 Hz, and stored using a Digidata-1322A analogue/digital interface with the pClamp software (Axon instruments). Series resistance compensation was applied (60-80%). […] All statistics in this study are given as mean±SD.
The membrane potential was maintained at a voltage where reactivation of the channel is complete (which was −60 mV for both NaV1.7 and NaV1.5). The voltage is then stepped back to a very negative (Vhold=150 mV) voltage for 20 ms and then a test poise is applied to quantify the compound block. The 20 ms brief repolarization was long enough for compound-free channels to completely recover from fast inactivation, but the compound-bound channels recovered more slowly such that negligible recovery could occur during this interval. The percent decrease in sodium current following wash-on of compound was taken as the percent block of sodium channels.

hNav1.7 = hNav1.7 (Homo sapiens (Human), UniProt Q15858); test: Tritiated sulfonamide competitive binding to membranes from cells expressing hNav1.7 and the β1 subunit;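 note: Filter-bound radioactivity counted by liquid scintillation, nonspecific binding defined with excess unlabelled ligand, IC50 fitted to percent inhibition of specific binding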
hNav1.7, sequence (Q15858 other isoform, or with tags, fused parts or gaps): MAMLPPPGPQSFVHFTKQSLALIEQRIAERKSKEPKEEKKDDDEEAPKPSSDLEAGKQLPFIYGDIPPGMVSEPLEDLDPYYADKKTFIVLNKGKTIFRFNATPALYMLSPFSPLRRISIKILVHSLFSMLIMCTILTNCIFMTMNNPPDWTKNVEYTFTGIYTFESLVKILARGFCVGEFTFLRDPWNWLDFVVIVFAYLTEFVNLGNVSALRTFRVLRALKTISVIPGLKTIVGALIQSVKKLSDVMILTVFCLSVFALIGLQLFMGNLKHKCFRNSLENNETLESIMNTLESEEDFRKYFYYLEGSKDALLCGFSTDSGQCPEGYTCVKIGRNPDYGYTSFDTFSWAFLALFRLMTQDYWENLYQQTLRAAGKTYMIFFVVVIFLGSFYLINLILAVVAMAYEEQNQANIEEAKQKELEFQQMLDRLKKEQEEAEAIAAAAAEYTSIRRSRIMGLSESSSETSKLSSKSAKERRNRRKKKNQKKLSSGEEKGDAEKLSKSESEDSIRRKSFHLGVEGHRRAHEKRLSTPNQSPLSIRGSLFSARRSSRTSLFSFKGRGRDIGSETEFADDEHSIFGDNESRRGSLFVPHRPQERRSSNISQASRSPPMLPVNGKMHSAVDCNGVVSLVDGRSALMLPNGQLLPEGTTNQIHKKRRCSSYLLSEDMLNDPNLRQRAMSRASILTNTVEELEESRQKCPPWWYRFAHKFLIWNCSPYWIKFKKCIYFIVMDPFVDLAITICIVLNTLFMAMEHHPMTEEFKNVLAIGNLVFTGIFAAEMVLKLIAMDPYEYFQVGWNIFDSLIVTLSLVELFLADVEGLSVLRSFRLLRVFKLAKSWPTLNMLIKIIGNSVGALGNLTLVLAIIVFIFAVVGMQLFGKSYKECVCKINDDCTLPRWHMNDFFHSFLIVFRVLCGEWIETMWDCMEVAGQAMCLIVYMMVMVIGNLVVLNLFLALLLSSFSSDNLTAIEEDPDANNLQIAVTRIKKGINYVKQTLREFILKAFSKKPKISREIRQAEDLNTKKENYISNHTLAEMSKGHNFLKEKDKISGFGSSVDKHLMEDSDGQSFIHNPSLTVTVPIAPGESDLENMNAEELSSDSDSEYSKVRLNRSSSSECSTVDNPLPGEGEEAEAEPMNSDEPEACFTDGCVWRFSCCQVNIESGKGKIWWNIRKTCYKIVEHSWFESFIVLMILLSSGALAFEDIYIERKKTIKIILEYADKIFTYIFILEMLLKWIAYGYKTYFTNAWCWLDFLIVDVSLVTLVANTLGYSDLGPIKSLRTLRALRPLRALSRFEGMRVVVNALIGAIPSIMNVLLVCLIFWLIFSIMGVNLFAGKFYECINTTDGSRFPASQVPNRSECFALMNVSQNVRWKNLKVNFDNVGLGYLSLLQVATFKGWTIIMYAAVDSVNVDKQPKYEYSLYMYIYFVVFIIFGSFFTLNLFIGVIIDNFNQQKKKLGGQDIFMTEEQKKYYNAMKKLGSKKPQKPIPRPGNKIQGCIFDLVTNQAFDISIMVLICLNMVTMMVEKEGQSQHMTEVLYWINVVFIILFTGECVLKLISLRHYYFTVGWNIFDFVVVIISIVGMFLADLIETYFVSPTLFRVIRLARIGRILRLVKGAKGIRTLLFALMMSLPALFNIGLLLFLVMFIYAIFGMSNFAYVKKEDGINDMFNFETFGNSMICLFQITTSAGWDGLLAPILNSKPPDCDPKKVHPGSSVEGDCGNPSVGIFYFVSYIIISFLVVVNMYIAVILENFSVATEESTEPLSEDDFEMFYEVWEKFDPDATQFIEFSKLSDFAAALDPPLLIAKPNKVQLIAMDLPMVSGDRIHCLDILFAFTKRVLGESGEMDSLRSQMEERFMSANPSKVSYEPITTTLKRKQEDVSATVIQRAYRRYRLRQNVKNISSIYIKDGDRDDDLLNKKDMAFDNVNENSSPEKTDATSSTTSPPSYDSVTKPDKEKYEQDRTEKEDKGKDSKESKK
hNav1.7, sequence (Q07699 19-218 partner): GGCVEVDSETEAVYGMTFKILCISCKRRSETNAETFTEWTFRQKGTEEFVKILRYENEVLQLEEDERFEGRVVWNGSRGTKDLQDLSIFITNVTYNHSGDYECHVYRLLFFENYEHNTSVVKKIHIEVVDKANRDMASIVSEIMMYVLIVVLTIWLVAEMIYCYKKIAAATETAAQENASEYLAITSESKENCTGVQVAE

[1] = read-out: NaV1.5 EP, HEK-293 cells stably expressing human NaV1.5 with β1 subunit, whole-cell patch clamp, holding −60 mV
[2] = read-out: Ligand Binding Assay, 100 pM [3H]compound, membranes with hNav1.7 and β1 subunit, 18 h, room temperature

NaV1.7, sequence (Q15858 other isoform, or with tags, fused parts or gaps): as the sequence (Q15858 other isoform, or with tags, fused parts or gaps) above
NaV1.7, sequence (Q07699 19-218 partner): as the sequence (Q07699 19-218 partner) above

SMILES | IC50 (NaV1.7) [nM] | IC50 (NaV1.5; [1]) [nM] | IC50 (hNav1.7; [2]) [nM] | IC50 (NaV1.5) [nM] | IC50 (hNav1.7) [nM]
CS(=O)(=O)NC(=O)c1cc(C2CC2)c(CN2CCO[C@H](Cc3cc(Cl)cc(Cl)c3)C2)cc1F [Example 463, (R)-5-cyclopropyl-4-((2-(3,5-dichlorobenzyl)morpholino)methyl)-2-fluoro-N-(methylsulfonyl)benzamide] | < 3 | 669 | 3.8 | – | –
O=C(NS(=O)(=O)C1CC1)c1cc(C2CC2)c(CN2CCO[C@H](Cc3cc(Cl)cc(Cl)c3)C2)cc1F [Example 464, (R)-5-cyclopropyl-N-(cyclopropylsulfonyl)-4-((2-(3,5-dichlorobenzyl)morpholino)methyl)-2-fluorobenzamide] | < 3 | 109 | 2.7 | – | –
CC(C)(c1cc(Cl)cc(Cl)c1)N1CCC[C@@H](Oc2cc(F)c(C(=O)NS(=O)(=O)C3CC3)cc2C2CC2)C1 [Example 495, (R)-5-cyclopropyl-N-(cyclopropylsulfonyl)-4-((1-(2-(3,5-dichlorophenyl)propan-2-yl)oxy)-2-fluorobenzamide, trifluoroacetic acid salt] | 0.2 | 15.4 | 4.4 | – | –
CS(=O)(=O)NC(=O)c1cc(C2CC2)c(O[C@@H]2CCCN(Cc3ccc(F)cc3Cl)C2)cc1F [Example 312, (R)-4-((1-(2-chloro-4-fluorobenzyl)piperidin-3-yl)oxy)-5-cyclopropyl-2-fluoro-N-(methylsulfonyl)benzamide] | < 1 | 310 | 2.2 | – | –
CS(=O)(=O)NC(=O)c1cc(C2CC2)c(OCC2CCN(Cc3cc(F)cc(C(F)(F)F)c3)CC2)cc1F [Example 228, 5-Cyclopropyl-2-fluoro-4-((1-(3-fluoro-5-(trifluoromethyl)benzyl)piperidin-4-yl)methoxy)-N-(methylsulfonyl)benzamide] | 31 | 4100 | 5.1 | – | –
COC[C@@H](c1cc(Cl)cc(Cl)c1)N1CCC(COc2cc(F)c(C(=O)NS(C)(=O)=O)cc2C2CC2)CC1 (single isomer, unassigned) [Example 162] | 2.8 | – | 3.9 | – | –
COC[C@H](c1cc(Cl)cc(Cl)c1)N1CCC(COc2cc(F)c(C(=O)NS(=O)(=O)N3CCC3)cc2C2CC2)CC1 (single isomer, unassigned) [Example 167] | 4.2 | – | – | – | –
CC(C)Oc1ncc(CN2CCC(COc3cc(F)c(C(=O)NS(C)(=O)=O)cc3C3CC3)CC2)cc1Cl [Example 217, 4-((1-((5-Chloro-6-isopropoxypyridin-3-yl)methyl)piperidin-4-yl)methoxy)-5-cyclopropyl-2-fluoro-N-(methylsulfonyl)benzamide] | 2.5 | 190 | – | – | –
O=C(NS(=O)(=O)N1CCC1)c1cc(C2CC2)c(O[C@@H]2CCCN(Cc3ccc(F)cc3Cl)C2)cc1F [Example 6, (R)—N-(azetidin-1-ylsulfonyl)-4-((1-(2-chloro-4-fluorobenzyl)piperidin-3-yl)oxy)-5-cyclopropyl-2-fluoroenzamide] | 0.9 | – | – | 33.1 | 3
CC(C)(c1cc(Cl)cc(Cl)c1)N1CCC(COc2cc(F)c(C(=O)NS(C)(=O)=O)cc2C2CC2)CC1 [Example 209] | 15.8 | – | 1.7 | – | –
O=C(NS(=O)(=O)N1CCC1)c1cc(C2CC2)c(O[C@@H]2CCCN(Cc3ccccc3)C2)cc1F [Example 1, (R)—N-(azetidin-1-ylsulfonyl)-4-((1-benzylpiperidin-3-yl)oxy)-5-cyclopropyl-2-fluorobenzamide] | 22.6 | 2760 | 35.6 | – | –
O=C(NS(=O)(=O)N1CCC1)c1cc(C2CC2)c(O[C@H]2CCCN(Cc3ccccc3)C2)cc1F [Example 2, (S)—N-(azetidin-1-ylsulfonyl)-4-((1-benzylpiperidin-3-yl)oxy)-5-cyclopropyl-2-fluorobenzamide] | 1080 | – | 4120 | – | –
COc1ccc(CN2CCC[C@@H](Oc3cc(F)c(C(=O)NS(C)(=O)=O)cc3C3CC3)C2)c(C)c1 [Example 434, trifluoroacetic acid salt] | 12.8 | – | 5 | – | –
C[C@@H](c1cc(Cl)cc(Cl)c1)N1CCC(COc2cc(F)c(C(=O)NS(C)(=O)=O)cc2C2CC2)CC1 [Example 100, (S)-5-Cyclopropyl-4-((1-(1-(3,5-dichlorophenyl)ethyl)piperidin-4-yl)methoxy)-2-fluoro-N-(methylsulfonyl)benzamide] | 5.8 | 552 | 4.19 | – | –
CCS(=O)(=O)NC(=O)c1cc(C2CC2)c(OCC2CCN([C@H](COC)c3cc(Cl)cc(Cl)c3)CC2)cc1F (single isomer, unassigned) [Example 169] | 3 | 280 | 6.3 | – | –
O=C(NS(=O)(=O)C1CC1)c1cc(C2CC2)c(CN2[C@@H]3CC[C@H]2C[C@@H](Oc2cc(Cl)cc(Cl)c2)C3)cc1F [Example 475, 5-cyclopropyl-N-(cyclopropylsulfonyl)-4-(((1R,3r,5S)-3-(3,5-dichlorophenoxy)-8-azabicyclo[3.2.1]octan-8-yl)methyl)-2-fluorobenzamide hydrochloride] | – | – | – | 814 | –
CS(=O)(=O)NC(=O)c1cc(C2CC2)c(OCC2(F)CCN(Cc3cc(C(F)(F)F)cc(Cl)c3F)CC2)cc1F [Example 346, 4-((1-(3-chloro-2-fluoro-5-(trifluoromethyl)benzyl)-4-fluoropiperidin-4-yl)methoxy)-5-cyclopropyl-2-fluoro-N-(methylsulfonyl)benzamide trifluoroacetic acid salt] | 2.2 | 682000 | 4.4 | – | –
CS(=O)(=O)NC(=O)c1cc(C2CC2)c(OCC2CCN(Cc3cc(F)cc(Cl)c3)CC2)cc1F [Example 268, 4-((1-(3-Chloro-5-fluorobenzyl)piperidin-4-yl)methoxy)-5-cyclopropyl-2-fluoro-N-(methylsulfonyl)benzamide] | 2.8 | – | 6 | – | –
CCS(=O)(=O)NC(=O)c1cc(C2CC2)c(OCC2CCN([C@@H](COC)c3cc(Cl)cc(Cl)c3)CC2)cc1F (single isomer, unassigned) [Example 168] | 3 | 78 | 6.2 | – | –
O=C(NS(=O)(=O)C1CC1)c1cc(C2CC2)c(O[C@@H]2CCCN(Cc3cccc(Cl)c3)C2)cc1F [Example 27, (R)-4-((1-(3-chlorobenzyl)piperidin-3-yl)oxy)-5-cyclopropyl-N-(cyclopropylsulfonyl)-2-fluorobenzamide] | – | – | – | 169 | 3.6
CS(=O)(=O)NC(=O)c1cc(C2CC2)c(OCC2CCN(Cc3cc(Cl)cc(Cl)c3C#N)CC2)cc1F [Example 594, 5-Cyclopropyl-4-((1-(3,5-dichloro-2-cyanobenzyl)piperidin-4-yl)methoxy)-2-fluoro-N-(methylsulfonyl)benzamide] | 8.4 | 623 | 137 | – | –
O=C(NS(=O)(=O)C1CC1)c1cc(C2CC2)c(CN2CCC(Oc3ncc(C4CC4)cc3Cl)CC2)cc1F [Example 474, 4-((4-((3-chloro-5-cyclopropylpyridin-2-yl)oxy)piperidin-1-yl)methyl)-5-cyclopropyl-N-(cyclopropylsulfonyl)-2-fluorobenzamide hydrochloride] | < 3 | 449 | 5.6 | – | –
C[C@H](c1ccc(Cl)c(C2CC2)n1)N1CCC[C@@H](Oc2cc(F)c(C(=O)NS(C)(=O)=O)cc2C2CC2)C1 (single isomer, unassigned) [Example 309] | 3 | 380 | 2.7 | – | –
COC[C@@H](c1cc(Cl)cc(Cl)c1)N1CCC(COc2cc(F)c(C(=O)NS(=O)(=O)C3CC3)cc2C2CC2)CC1 (single isomer, unassigned) [Example 164] | 3.3 | – | 4.3 | – | –
COC[C@H](c1cc(Cl)cc(Cl)c1)N1CCC(COc2cc(F)c(C(=O)NS(=O)(=O)C3CC3)cc2C2CC2)CC1 (single isomer, unassigned) [Example 165] | 2.4 | 49 | 2.3 | – | –
CCS(=O)(=O)NC(=O)c1cc(C2CC2)c(OCC2CCN([C@@H](c3cc(Cl)cc(Cl)c3)C(C)(C)OC)CC2)cc1F (single isomer, unassigned) [Example 208] | 3 | 13 | 1.6 | – | –
CS(=O)(=O)NC(=O)c1cc(C2CC2)c(OCC2CCN(C(=O)c3ccc(Cl)c(Cl)c3)CC2)cc1F [Example 232, 5-Cyclopropyl-4-((1-(3,4-dichlorobenzoyl)piperidin-4-yl)methoxy)-2-fluoro-N-(methylsulfonyl)benzamide] | – | – | 64 | – | –
O=C(NS(=O)(=O)C1CC1)c1cc(C2CC2)c(OCC2CCN(C(c3ccccc3)c3cc(Cl)cc(Cl)c3)CC2)cc1F (stereo not shown) [Example 411, 5-cyclopropyl-N-(cyclopropylsulfonyl)-4-((1-((3,5-dichlorophenyl)(phenyl)methyl)piperidin-4-yl)methoxy)-2-fluorobenzamide, trifluoroacetic acid salt] | – | – | 0.8 | – | –
COC[C@H](c1ccc(Cl)c(Cl)c1)N1CCC(COc2cc(F)c(C(=O)NS(C)(=O)=O)cc2C2CC2)CC1 (single isomer, unassigned) [Example 265] | – | – | 100 | – | –
C[C@H](c1ccc(Cl)cc1Cl)N1CCC(COc2cc(F)c(C(=O)NS(C)(=O)=O)cc2C2CC2)CC1 [Example 239, (R)-5-cyclopropyl-4-((1-(1-(2,4-dichlorophenyl)ethyl)piperidin-4-yl)methoxy)-2-fluoro-N-(methylsulfonyl)benzamide] | – | – | 3.4 | – | –
